Data on 25 compounds can be found in patent publication US9681664B2, “Macrocyclic picolinamides as fungicides” (Dow Agrosciences LLC, priority 2012, dated 2017).

Read-outs that look alike come from different tables or passages of the source. A value given as a limit tells only on which side of the number the result lay.

Test [1] concerns Puccinia triticina; Synonym: Puccinia recondite f. sp. tritici. Kind of test: Wheat brown rust (PUCCRT) disease control on wheat seedlings. The conditions noted are these: Puccinia triticina, High volume application, 100 ppm. It counts as in vivo. On the procedure:
Technical grades of materials were dissolved in acetone, which were then mixed with nine volumes of water containing 110 ppm Triton X-100. The fungicide solutions were applied onto wheat seedlings using an automated booth sprayer to run-off. All sprayed plants were allowed to air dry prior to further handling. All fungicides were evaluated using the aforementioned method for their activity vs. all target diseases. Wheat leaf blotch and brown rust activity were also evaluated using track spray applications, in which case the fungicides were formulated as EC formulations, containing 0.1% Trycol 5941 in the spray solutions. Wheat plants (variety Yuma) were grown from seed in a greenhouse in 50% mineral soil/50% soil-less Metro mix until the first leaf was fully emerged, with 7-10 seedlings per pot. These plants were inoculated with an aqueous spore suspension of Puccinia triticina either prior to or after fungicide treatments. After inoculation the plants were kept in a dark dew room at 22° C. with 100% relative humidity overnight to permit spores to germinate and infect the leaf. The plants were then transferred to a greenhouse set at 24° C. for disease to develop. Fungicide formulation, application and disease assessment followed the procedures as described in the Example A.

Test [2] relates to Mycosphaerella graminicola; Anamorph: Septoria tritici. Kind of test: Leaf blotch of wheat (SEPTTR) disease control on wheat seedlings. The following applies: Zymoseptoria tritici, High volume application, 100 ppm. The test is classed as in vivo. On the procedure: Technical grades of materials were dissolved in acetone, which were then mixed with nine volumes of water containing 110 ppm Triton X-100. The fungicide solutions were applied onto wheat seedlings using an automated booth sprayer to run-off. All sprayed plants were allowed to air dry prior to further handling. All fungicides were evaluated using the aforementioned method for their activity vs. all target diseases. Wheat leaf blotch and brown rust activity were also evaluated using track spray applications, in which case the fungicides were formulated as EC formulations, containing 0.1% Trycol 5941 in the spray solutions. Wheat plants (variety Yuma) were grown from seed in a greenhouse in 50% mineral soil/50% soil-less Metro mix until the first leaf was fully emerged, with 7-10 seedlings per pot. These plants were inoculated with an aqueous spore suspension of Septoria tritici either prior to or after fungicide treatments. After inoculation the plants were kept in 100% relative humidity (one day in a dark dew chamber followed by two to three days in a lighted dew chamber at 20° C.) to permit spores to germinate and infect the leaf. The plants were then transferred to a greenhouse set at 20° C. for disease to develop. When disease symptoms were fully expressed on the 1st leaves of untreated plants, infection levels were assessed on a scale of 0 to 100 percent disease severity. Percent disease control was calculated using the ratio of disease severity on treated plants relative to untreated plants.

Setting [3] is: 24 h, 1 Day Protectant, read-out: PUCCRT 1DP disease control.
The mark [4] stands for this setting: 72 h, 3 Day Curative, read-out: PUCCRT 3DC disease control.
[5] abbreviates: 24 h, 1 Day Protectant, read-out: SEPTTR 1DP disease control.
Where [6] appears, read: 72 h, 3 Day Curative, read-out: SEPTTR 3DC disease control.

Consider `COc1ccc(O[C@H]2[C@H](C)OC(=O)[C@@H](NC(=O)c3nccc(OC)c3OCOC(C)=O)CCC[C@@H]2Oc2ccc(OC)cc2)cc1` [F66], for which the pest or weed control at 100 ppm in test [1] (setting [3]) is 80 to 100%; in test [1] (setting [4]) it was 80 to 100%; in test [2] (setting [5]), 80 to 100%; in test [2] (setting [6]), 0 to 80%.

Consider `COc1ccc(O[C@H]2[C@H](C)OC(=O)[C@@H](NC(=O)c3nccc(OC)c3OCOC(=O)C(C)C)CCC[C@@H]2Oc2ccc(OC)cc2)cc1` [F67], for which the pest or weed control at 100 ppm in test [1] (setting [3]) lay in the range of 80 to 100%; in test [1] (setting [4]) it was 80 to 100%; in test [2] (setting [5]), 80 to 100%; in test [2] (setting [6]), 0 to 80%.

For `COc1ccc(O[C@H]2CCC[C@H](NC(=O)c3nccc(OC)c3OCOC(=O)C(C)C)C(=O)O[C@@H](C)[C@@H]2OCC(C)C)cc1` [F69], the pest or weed control at 100 ppm in test [1] (setting [3]), in test [1] (setting [4]), in test [2] (setting [5]) and in test [2] (setting [6]) was 80 to 100% each time.

Turning to `CCCCCO[C@H]1[C@H](C)OC(=O)[C@@H](NC(=O)c2nccc(CC)c2O)CCC[C@@H]1OCC(C)C` [F70], the pest or weed control at 100 ppm in test [1] (setting [3]), in test [1] (setting [4]), in test [2] (setting [5]) and in test [2] (setting [6]) was 0 to 80% each time.

As for `CCc1ccnc(C(=O)N[C@H]2CCC[C@H](OCC(C)C)[C@@H](OCCC(C)OC)[C@H](C)OC2=O)c1O` (stereo partly shown) [F71], the pest or weed control at 100 ppm in test [1] (setting [3]) was in the range of 0 to 80%; in test [1] (setting [4]), 80 to 100%; in test [2] (setting [5]) it was 0 to 80%; in test [2] (setting [6]) it was 0 to 80%.

Take `COc1ccnc(C(=O)N[C@H]2CCC[C@H](OCC(C)C)[C@@H](OCCC(C)OC)[C@H](C)OC2=O)c1OCOC(C)=O` (stereo partly shown) [F72]: the pest or weed control at 100 ppm in test [1] (setting [3]), in test [1] (setting [4]), in test [2] (setting [5]) and in test [2] (setting [6]) was 80 to 100% each time.

With `COc1ccnc(C(=O)N[C@H]2CCC[C@H](OC3CCCC3)[C@@H](Oc3ccccc3)[C@H](C)OC2=O)c1O` [F74], the pest or weed control at 100 ppm in test [1] (setting [3]), in test [1] (setting [4]), in test [2] (setting [5]) and in test [2] (setting [6]) was 80 to 100% in each case.

Turning to `COc1ccnc(C(=O)N[C@H]2CCC[C@H](Oc3ccccc3)[C@@H](OC3CCCC3)[C@H](C)OC2=O)c1O` [F75], the pest or weed control at 100 ppm in test [1] (setting [3]), in test [1] (setting [4]), in test [2] (setting [5]) and in test [2] (setting [6]) was 80 to 100% throughout.

With `COc1ccnc(C(=O)N[C@H]2CCC[C@H](OCC(C)C)[C@@H](Oc3ccc(C)cc3)[C@H](C)OC2=O)c1O` [F82], the pest or weed control at 100 ppm is 0 to 80% in test [1] (setting [3]), 0 to 80% in test [1] (setting [4]), below 0% in test [2] (setting [5]) and 0 to 80% in test [2] (setting [6]).

On to `COc1ccnc(C(=O)N[C@H]2CCC[C@H](OCC(C)C)[C@@H](OCCC(C)OC)[C@H](C)OC2=O)c1OC(C)=O` (stereo partly shown) [F83], for which the pest or weed control at 100 ppm in test [1] (setting [3]), in test [1] (setting [4]), in test [2] (setting [5]) and in test [2] (setting [6]) was 80 to 100% each time.

Take `COc1ccnc(C(=O)N[C@H]2CCC[C@H](OC(=O)C3CCCC3)[C@@H](OC(=O)C3CCCC3)[C@H](C)OC2=O)c1O` [F84]: the pest or weed control at 100 ppm in test [1] (setting [3]), in test [1] (setting [4]), in test [2] (setting [5]) and in test [2] (setting [6]) was 0 to 80% in each case.

With `COc1ccnc(C(=O)N[C@H]2CCC[C@H](OCCCC(F)(F)F)[C@@H](OCCCC(F)(F)F)[C@H](C)OC2=O)c1O` [F85], the pest or weed control at 100 ppm in test [1] (setting [3]) is below 0%; in test [1] (setting [4]) it was 0 to 80%; in test [2] (setting [5]), below 0%; in test [2] (setting [6]), 0 to 80%.

With `COc1ccnc(C(=O)N[C@H]2CCC[C@H](OCC(C)C)[C@@H](Oc3ccc(C)cc3)[C@H](C)OC2=O)c1OCOC(C)=O` [F86], the pest or weed control at 100 ppm in test [1] (setting [3]), in test [1] (setting [4]), in test [2] (setting [5]) and in test [2] (setting [6]) was 80 to 100% throughout.

Consider `COc1ccnc(C(=O)N[C@H]2CCC[C@H](OCCCC(F)(F)F)[C@@H](OCCCC(F)(F)F)[C@H](C)OC2=O)c1OCOC(C)=O` [F87], for which the pest or weed control at 100 ppm in test [1] (setting [3]), in test [1] (setting [4]), in test [2] (setting [5]) and in test [2] (setting [6]) was 80 to 100% each time.

`COc1ccnc(C(=O)N[C@H]2CCC[C@H](OC(=O)C3CCCC3)[C@@H](OC(=O)C3CCCC3)[C@H](C)OC2=O)c1OCOC(C)=O` [F88]: the pest or weed control at 100 ppm in test [1] (setting [3]), in test [1] (setting [4]), in test [2] (setting [5]) and in test [2] (setting [6]) was 80 to 100% throughout.

Regarding `CCCCCO[C@H]1[C@H](C)OC(=O)[C@@H](NC(=O)c2nccc(OC)c2OC(C)=O)CCC[C@@H]1OCC(C)C` [F89], the pest or weed control at 100 ppm in test [1] (setting [3]), in test [1] (setting [4]), in test [2] (setting [5]) and in test [2] (setting [6]) was 80 to 100% in each case.

Consider `COc1ccnc(C(=O)N[C@H]2CCC[C@H](OCCCC(F)(F)F)[C@@H](OCCCC(F)(F)F)[C@H](C)OC2=O)c1OC(C)=O` [F90], for which the pest or weed control at 100 ppm in test [1] (setting [3]), in test [1] (setting [4]), in test [2] (setting [5]) and in test [2] (setting [6]) was 80 to 100% in each case.

Regarding `COc1ccnc(C(=O)N[C@H]2CCC[C@H](OC(=O)C3CCCC3)[C@@H](OC(=O)C3CCCC3)[C@H](C)OC2=O)c1OC(C)=O` [F91], the pest or weed control at 100 ppm in test [1] (setting [3]), in test [1] (setting [4]), in test [2] (setting [5]) and in test [2] (setting [6]) was 80 to 100% in each case.

In the case of `COc1ccnc(C(=O)N[C@H]2CCC[C@H](OCC(C)C)[C@@H](Oc3ccc(C)cc3)[C@H](C)OC2=O)c1OC(C)=O` [F92], the pest or weed control at 100 ppm in test [1] (setting [3]), in test [1] (setting [4]), in test [2] (setting [5]) and in test [2] (setting [6]) was 80 to 100% in each case.

As for `CCCO[C@H]1[C@H](C)OC(=O)[C@@H](NC(=O)c2nccc(OC)c2O)CCC[C@@H]1Oc1ccccc1` [F93], the pest or weed control at 100 ppm in test [1] (setting [3]), in test [1] (setting [4]), in test [2] (setting [5]) and in test [2] (setting [6]) was 80 to 100% throughout.

Consider `CCCCCO[C@H]1[C@H](C)OC(=O)[C@@H](NC(=O)c2nccc(OC)c2O)CCC[C@@H]1Oc1ccccc1` [F94], for which the pest or weed control at 100 ppm is 0 to 80% in test [1] (setting [3]), below 0% in test [1] (setting [4]), 0 to 80% in test [2] (setting [5]) and 0 to 80% in test [2] (setting [6]).

Turning to `CCCCCO[C@H]1[C@H](C)OC(=O)[C@@H](NC(=O)c2nccc(OC)c2OCOC(C)=O)CCC[C@@H]1Oc1ccccc1` [F96], the pest or weed control at 100 ppm in test [1] (setting [3]), in test [1] (setting [4]), in test [2] (setting [5]) and in test [2] (setting [6]) was 80 to 100% in each case.

Take `CCCO[C@H]1[C@H](C)OC(=O)[C@@H](NC(=O)c2nccc(OC)c2OCOC(=O)C(C)C)CCC[C@@H]1Oc1ccccc1` [F97]: the pest or weed control at 100 ppm in test [1] (setting [3]), in test [1] (setting [4]), in test [2] (setting [5]) and in test [2] (setting [6]) was 80 to 100% each time.

For the compound `CCCCCO[C@H]1[C@H](C)OC(=O)[C@@H](NC(=O)c2nccc(OC)c2OCOC(=O)C(C)C)CCC[C@@H]1Oc1ccccc1` [F98], the pest or weed control at 100 ppm in test [1] (setting [3]), in test [1] (setting [4]), in test [2] (setting [5]) and in test [2] (setting [6]) was 80 to 100% throughout.

For the compound `COc1ccnc(C(=O)N[C@H]2CCC[C@H](OC(=O)C3CCCC3)[C@@H](OC(=O)C3CCCC3)[C@H](C)OC2=O)c1OCOC(=O)C(C)C` [F99], the pest or weed control at 100 ppm in test [1] (setting [3]), in test [1] (setting [4]), in test [2] (setting [5]) and in test [2] (setting [6]) was 80 to 100% in each case.
